Assay [1] relates to hypoxic pulmonary vasoconstriction (HPV) in mice. The assay can be described thus: Percent increase in left pulmonary vascular resistance (LPVR) after LMBO, one-lung hypoxia model (Example 3, FIG. 13). The class given is in vivo, mouse. The note with it: endotoxin-challenged wild-type mice. The method, then:
Wild-type (SV129B6/F1) mice and 5LO-deficient mice were anesthetized and studied at thoracotomy. Left pulmonary artery flow (QLPA) and pulmonary (PPA) and systemic (PSA) artery pressures were measured continuously.
HPV was assessed as the percent increase in left pulmonary vascular resistance (the slope of the P/Q-relationship, LPVR) after left main bronchus occlusion (LMBO). LMBO increased LPVR by 99±13% in 5LO deficient mice, and by 100±11% in wild-type mice.

Assay [2] has as its system isolated-perfused mouse lungs preconstricted with U46619. The assay can be described thus: Pulmonary vasodilator response to NO inhalation in isolated, perfused and ventilated mouse lungs preconstricted with U46619. Format: in vivo. To be noted: for impairment of responsiveness to NO inhalation: wild-type mice treated with endotoxin, scavengers of reactive oxygen and nitrogen species; for vasodilator response to NO inhalation, compared to that in control mice: endotoxin-challenged (LPS 50 mg/kg i.p.) wild-type mice treated with NAC 150 mg/kg i.p. immediately and 3.5 hours later, lungs isolated 16 hours after endotoxin. The method, then: Isolated, Perfused, and Ventilated Mouse Lung Model Mice were killed by intraperitoneal injection of pentobarbital sodium (200 mg/kg body weight) and placed in a 37° C. water-jacketed chamber (Isolated Perfused Lung Size 1 Type 839; Hugo-Sachs Elektronik, March-Hugstetten, Germany). The trachea was isolated and intubated, and the lungs were ventilated with 21% O2, 6% CO2 and 73% N2 using a volume-controlled ventilator (model 687; Harvard Apparatus, South Natick, Mass.) at a ventilatory rate of 85 breaths/min and 2 cm H2O end-expiratory pressure. The tidal volume was adjusted to provide a peak inspiratory pressure of 10 cm H2O throughout each study. The lungs were exposed via a midline sternotomy, and a ligataure was placaed around the aorticopulmonary outflow tract. After injection of 10 IU heparin into the right ventricle, the pulmonary artery was cannulated with a stainless steel cannula (1 mm ID) via the right ventricle. The pulmonary venous effluent was drained via a stainless steel cannula (1 mm ID) placed through the apex of the left ventricle across the mitral valve and into the left atrium. Left atrial pressure was maintained at 2 mmHg. Lungs were perfused at a constant flow (50 ml. kg body weight^−1. min^−1; Ismatec Reglo-Analogue roller pump; Laboratoriumstechnik GmbH, Wertheim-Mondfeld, Germany) with a non-recirculating system at 37° C. The perfusate used was Hanks' Balanced Salt Solution (GibcoBRL, Grand Island, N.Y.) containing 1.26 mM CaCl2, 5.33 mM KCl, 0.44 mM KH2PO4, 0.50 mM MgCl2, 0.41 mM MgSO4, 138.0 mM NaCl, 4.0 mM NaHCO3, 0.3 mM Na2HPO4, and 5.6 mM glucose. Bovine serum albumin, 5%, and dextran, 5% (both from Sigma Chemical Co., St. Louis, Mo.), were added to the perfusate to prevent pulmonary edema, in the isolated, perfused, and ventilated rat lung, essentially as described in Holzmann et al., 1996, Am. J. Physiol. 271:L981-L986. Indomethacin, […] (Sigma Chemical Co.), and 1 mM L-NAME (Sigma Chemical Co.) were added to the perfusate to inhibit endogenous prostaglandin and NO synthesis, respectively. Sodium bicarbonate was added to adjust the perfusate pH to 7.34-7.43.
Pulmonary artery pressure (PAP) and left atrial pressure were measured via saline-filled membrane pressure transducers (Argon, Athens, Tex.) connected to a side port of the inflow and outflow cannulae, respectively. Airway pressure (Paw) was measured using a differential pressure transducer (model MP-45-32-871; Validyne Engineering Corp., Northridge, Calif.) connected to the inspiratory limb just before the Y piece. Pressure transducers were connected to a biomedical amplifier (Hewlett Packard 7754B, Andover, Mass.), and data were recorded at 150 Hz on a personal computer using an analog-to-digital interface with a data acquisition system (DI-220; Dataq Instruments, Akron, Ohio). The system was calibrated before each experiment.
For NO inhalation, NO gas (800 or 80 ppm NO in nitrogen, Airco, Murray Hill, N.J.) was blended (Oxygen Blender; Bird Corporation, Palm Springs, Calif.) with oxygen, carbon dioxide, and nitrogen to achieve a final concentration of 21% O2, 6% CO2, and the desired NO concentration. NO and higher oxidative states of NO (NOx; CLD 700 AL; Eco Physics, Dürmten, Switzerland), oxygen (Hudson Ventronics Ddivision, Temecula, Calif.), and carbon dioxide (Datex CO2 monitor; Puritan-Bennett Corpration, Los Angeles, Calif.) concentrations were monitored continuously.
Pulmonary Vascular Response to NO inhalation after Lipopolysaccharide Challenge Wild-type mice and NOS2-deficient mice were injected intraperitoneally with 50 mg/kg body weight Escherichia coli 0111:B4 lipopolysaccharide (LPS; Difco Laboratories, Detroit, Mich.) dissolved in saline 16 h before isolated lung perfusion. This time point was chosen based on previous studies in rats (Holzmann et al., 1996, Am. J. Physiol. 271:L981-L986). Untreated wild-type and NOS2-deficient mice served as controls. […]

Assay [3] has as its system hypoxic pulmonary vasoconstriction (HPV) in mice. The assay is described as follows: Change in incremental left pulmonary vascular resistance (ΔiLPV) in response to LMBO, a measure of HPV (Example 2, FIG. 8). The class given is in vivo, mouse. The method, then: We performed experiments on the change in incremental left pulmonary vascular resistance, ΔiLPV, in response to LMBO—a measure of HPV. HPV was impaired in wild-type mice challenged with endotoxin (FIG. 8). HPV was preserved in endotoxin-challenged mice treated with N-acetylcysteine at 500 mg/kg, but not 150 mg/kg (intraperitoneal administration simultaneously with endotoxin).

Assay [4] relates to pulmonary vasculature of wild-type mice. The assay can be described thus: Pulmonary vasoconstrictor response to intravenous angiotensin II. The class given is in vivo, mouse. The note with it: for PVR: 5.0 μg/kg per minute angiotensin II. The method, then: Group 6: pulmonary vascular response to increasing doses of intravenous angiotensin II. SV129/B6F1 wild-type mice treated with endotoxin (n=5) or with saline (n=3) were studied 22 hours after the challenge.
Infusion of angiotensin II. Increasing doses of angiotensin II (0.05, 0.5, and 5.0 ng/g bw per minute) dissolved in sterile normal saline were infused via the central venous catheter using an infusion pump (Pump 11; Harvard Apparatus Co., South Natick, Mass.). PLA, PPA, PSA, and QLTAF were continuously measured.

The results in this text go back to patent US6935334B2, “Enhancing therapeutic effectiveness of nitric oxide inhalation” (The General Hospital Corporation, priority 2000, dated 2005).

Regarding `CN(C)C(=O)CCSC(SCCC(=O)O)c1cccc(/C=C/c2ccc3ccc(Cl)cc3n2)c1` (stereo not drawn) [MK571], the “HPV (LMBO-induced increase in left PVR)” value in assay [1] was “preserved”.

For the molecule `CNC(=O)NC` [dimethylurea], the “impairment of responsiveness to NO inhalation” value (from here on “impairment … to NO inhalation”) in assay [2] is on record as “prevented impairment of responsiveness to NO inhalation”.

With `CC(C)c1ccc2c(c1)c(SC(C)(C)C)c(CC(C)(C)C(=O)O)n2Cc1ccc(Cl)cc1` [MK886], the “HPV (LMBO-induced increase in left PVR)” value in assay [1] is “preserved”.

On to `[Cl-].[Mn+3].[O-]c1ccccc1C=NCCN=Cc1ccccc1[O-]` [EUK-8], for which the “impairment … to NO inhalation” value in assay [2] is recorded as “prevented impairment of responsiveness to NO inhalation”. In assay [3] (endotoxin-challenged mice treated with EUK-8), the “HPV (ΔiLPV in response to LMBO)” value is given as “completely preserved”.

`CC(=O)N[C@@H](CS)C(=O)O` [N-acetylcysteine]: the “vasodilator response to NO inhalation, compared to that in control mice” value in assay [2] (0.4 ppm NO) turned out to be 75±14%; in assay [2] (4.0 ppm NO) it was 103±15%; in assay [2] (40 ppm NO), 91±7%. The “responsiveness to NO inhalation after prolonged NO exposure” value in assay [2] (endotoxin-challenged, NAC-treated mice exposed to 20 ppm NO for 16 hours) was “preserved”. Moreover, the “lipopolysaccharide-induced attenuation of vasoreactivity to NO inhalation (FIG. 5)” value in assay [2] (two doses of 150 mg/kg i.p., simultaneously with lipopolysaccharide and 3.5 hours later) is on record as “completely protected”. In addition, the “impairment … to NO inhalation” value in assay [2] is given as “prevented impairment of responsiveness to NO inhalation”. The “HPV (ΔiLPV in response to LMBO)” value is “not” in assay [3] (endotoxin-challenged mice, 150 mg/kg intraperitoneally simultaneously with endotoxin) and “preserved” in assay [3] (endotoxin-challenged mice, 500 mg/kg intraperitoneally simultaneously with endotoxin). Also, the HPV result in assay [3] (endotoxin-challenged wild-type mice treated with N-acetylcysteine and exposed to 20 ppm NO for 22 hours) was “not impaired”.

On to “angiotensin II: vasoconstrictor infused intravenously to test pulmonary vascular contractile function (DRVYIHPF; Angiotensin-2; UniProt P01019 25-32, looked up)”, for which the PVR in assay [4] (endotoxin-challenged wild-type mice, baseline 55±11) is listed as 174±40 mmHg·min·g·mL^−1; in assay [4] (saline-treated wild-type mice without endotoxin, baseline 74±24), 184±25 mmHg·min·g·mL−1. The “PLA in response to angiotensin II infusion” value in assay [4] (saline-treated and endotoxin-treated wild-type mice (either group)) is given as “did not change”.

B1: catalase: scavenger of reactive oxygen and nitrogen species (anti-ROS agent) (protein, UniProt P04040 2-527, looked up)
Catalase: ADSRDPASDQMQHWKEQRAAQKADVLTTGAGNPVGDKLNVITVGPRGPLLVQDVVFTDEMAHFDRERIPERVVHAKGAGAFGYFEVTHDITKYSKAKVFEHIGKKTPIAVRFSTVAGESGSADTVRDPRGFAVKFYTEDGNWDLVGNNTPIFFIRDPILFPSFIHSQKRNPQTHLKDPDMVWDFWSLRPESLHQVSFLFSDRGIPDGHRHMNGYGSHTFKLVNANGEAVYCKFHYKTDQGIKNLSVEDAARLSQEDPDYGIRDLFNAIATGKYPSWTFYIQVMTFNQAETFPFNPFDLTKVWPHKDYPLIPVGKLVLNRNPVNYFAEVEQIAFDPSNMPPGIEASPDKMLQGRLFAYPDTHRHRLGPNYLHIPVNCPYRARVANYQRDGPMCMQDNQGGAPNYYPNSFGAPEQQPSALEHSIQYSGEVRRFNTANDDNVTQVRAFYVNVLNEEQRKRLCENIAGHLKDAQIFIQKKAVKNFTEVHPDYGSHIQALLDKYNAEKPKNAIHTFVQSGSHLAAREKANL
Consider B1, for which, in assay [2], the “impairment … to NO inhalation” value was “prevented impairment of responsiveness to NO inhalation”.
